Where two headings read alike, the source gives them in different places.
Columns and labels:
Type in all cases: binding
[1] = target: T1, murine TRIM21 PRY-SPRY domain (Mus musculus, UniProt Q62191); experiment: Differential scanning fluorimetry (DSF, ΔTm), mouse TRIM21 PRY-SPRY domain
T1 construct: mouse TRIM21 PRY-SPRY domain (residues V291-M470, UniProt-ID: Q62191); made in house; host or cells: E. coli BL21(DE3)
T1 sequence (Q62191 291-470): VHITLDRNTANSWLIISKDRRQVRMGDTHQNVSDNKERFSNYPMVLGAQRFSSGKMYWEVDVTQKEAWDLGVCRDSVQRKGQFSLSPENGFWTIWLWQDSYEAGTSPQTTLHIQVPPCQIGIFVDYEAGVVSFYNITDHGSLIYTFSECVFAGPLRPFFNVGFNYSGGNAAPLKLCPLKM
Method: (§1) Briefly, recombinant murine and human TRIM21 PRY-SPRY domain at a concentration of 8 μM were mixed with 2 mM compound in their respective SEC buffer. SYPRO Orange (5000×, Invitrogen) was added as a fluorescence probe (1 µl per mL). Subsequently, temperature-dependent protein unfolding profiles were measured using the QuantStudio™ 5 realtime PCR machine (Thermo Fisher). Excitation and emission filters were set to 465 nm and 590 nm, respectively. The temperature was raised with a step rate of 3 °C per minute. Data points were analysed with the internal software (Thermal Shift SoftwareTM Version 1.4, Thermo Fisher) using the Boltzmann equation to determine the inflection point of the transition curve.

[2] = target: T2, human TRIM21 PRY-SPRY domain (Homo sapiens, UniProt P19474); experiment: Differential scanning fluorimetry (DSF, ΔTm), human TRIM21 PRY-SPRY domain
T2 construct: Human TRIM21 PRY-SPRY domain (residues V287-I465, UniProt-ID: P19474); His6 (N, cleaved yes); SUMO (N, cleaved yes); made in house; host or cells: E. coli BL21(DE3)
Method: as §1

[3] = target: T3, His-mTRIM21 PRYSPRY (Mus musculus, UniProt Q62191); experiment: SPR fragment screening and dose response, mouse TRIM21 PRY-SPRY
T3 construct: mouse TRIM21 PRY-SPRY domain (residues V291-M470, UniProt-ID: Q62191); made in house; host or cells: E. coli BL21(DE3)
T3 sequence (Q62191 291-470): T1 sequence (Q62191 291-470)
Method: (§2) His-mTRIM21 PRYSPRY and His-SUMO-hTRIM21 PRY-SPRY were immobilized onto flow channels (FC) FC2, FC3, and FC4 of a Series S sensor chip NTA (Cytiva). […] Proteins (10–20 µg mL^−1 in HBS-P+) were injected at 10 µL min^−1 to achieve response levels of 3500–4300 RU for mTRIM21 and 3600–4000 RU for hTRIM21. Flow channel 1 (FC1) was used as a reference surface. Surface deactivation and nickel stripping were achieved using 1 M ethanolamine and 350 mM ethylenediaminetetraacetic acid (EDTA), respectively.
(§3) Fragment screening was conducted by injecting 500 µM fragments diluted in running buffer (HBS-P+ with 1 mM TCEP and 2% (v/v) dimethyl sulfoxide (DMSO)) over all flow-channels for 30 s at 30 µL/min^−1. To account for surface drift, 50 µM of a control compound (Suramin) was injected every 15 fragment injections, and blank injections were performed every 5 fragments. Responses were analyzed by blank subtraction, reference subtraction (FC1), solvent correction, molecular weight adjustment, and drift correction using Biacore T200 Evaluation Software v3.2.1. The binding threshold for fragment hits was set based on the Suramin-binding response level.
The data was solvent-corrected, reference-subtracted (FC1), and blank-subtracted using the T200 Evaluation Software v3.2.1. Sensorgrams were subsequently replotted using Graphpad v.9 software.

[4] = target: T4, His-SUMO-hTRIM21 PRY-SPRY (Homo sapiens, UniProt P19474); experiment: SPR fragment screening, human TRIM21 PRY-SPRY
T4 construct: Human TRIM21 PRY-SPRY domain (residues V287-I465, UniProt-ID: P19474); made in house; host or cells: E. coli BL21(DE3)
Method: as §2, §3

[5] = single dose 500 µM fragment, relative response, suramin reference threshold 100 relative RU

T4 sequence (P19474 287-465): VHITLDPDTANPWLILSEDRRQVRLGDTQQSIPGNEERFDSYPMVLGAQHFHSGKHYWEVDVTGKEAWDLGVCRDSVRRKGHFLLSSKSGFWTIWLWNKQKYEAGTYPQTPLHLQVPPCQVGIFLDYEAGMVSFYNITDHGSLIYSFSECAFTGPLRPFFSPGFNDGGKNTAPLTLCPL
T2 sequence (P19474 287-465): as above

Compound	Tm-shift mTRIM21 ([1]; 2 mM compound, 8 μM protein)	Tm-Shift hTRIM21 ([2]; 2 mM compound, 8 μM protein)	SPR mTRIM21 (Response) [3, 5]	SPR hTRIM21 (Response) [4, 5]	Tm-shift mTRIM21 [1]	Tm-Shift hTRIM21 [2]	SPR mTRIM21 (Response) [3]	SPR hTRIM21 (Response) [4]
CCc1nnc(NC(=O)C2CCCO2)s1 (stereo not drawn) [Fragment Z26823525]	-0.2 °C	-0.4 °C	54.46	48.81				
CCCn1c(NC(=O)CC)nc2ccccc21 [Fragment Z29077827]	-0.6 °C	-0.7 °C	54.53	48.46				
CCCc1cc(=O)oc2cc(OC(C)=O)ccc12 [Fragment Z29634868]			78.57	95.03				
CCC(=O)Nc1nc(C)cs1 [Fragment Z30820160]					-0.5 °C	-0.2 °C	15.6	46.05
O=C(c1ccc2c(c1)OCO2)N1CCCCCC1 [Fragment Z31432226]	-0.6 °C	-0.8 °C						
COCC(=O)NCc1ccccc1 [Fragment Z31478538]	-0.3 °C	-0.3 °C	37.9	38.23				
O=C(c1ccco1)N1CCN(C(=O)C2CC2)CC1 [Fragment Z32327641]	-0.2 °C	0 °C	37.82	35.48				
O=C(NC1CC1)c1ccc2c(c1)OCO2 [Fragment Z32367954]					-0.3 °C	-0.6 °C	59.37	68.73
Cc1cccc(C(=O)N2CCC(C(N)=O)CC2)c1 [Fragment Z32400357]	-0.4 °C	-0.1 °C	57.58	52.75				
CS(=O)(=O)NCCc1ccccc1 [Fragment Z45617795]	-0.3 °C	-0.2 °C	50.84	53.67				
CS(=O)(=O)NCCc1ccc(F)cc1 [Fragment Z45705015]	-0.5 °C	-0.2 °C	46.34	48.3				
CC(=O)NCCc1ccccc1C [Fragment Z52314092]	-0.3 °C	-0.4 °C	79.62	75.76				
O=C(O)COc1ccc(F)cc1 [Fragment Z56978034]					-0.2 °C	0 °C	107.1	99.74
CC(=O)Nc1ccc(CN2CCOCC2)cc1 [Fragment Z57450788]	0 °C	0.4 °C	64.68	43.78				
O=C(CN1CCCC1=O)Nc1nccs1 [Fragment Z79432418]					-0.4 °C	-0.3 °C	63.39	61.55
O=C(O)C1CCCN(C(=O)Cc2ccc(F)cc2)C1 (stereo not drawn) [Fragment Z85893853]	-0.4 °C	-0.1 °C	60.46	49.09				
Cc1nc2[nH]c(C(C)C)cc(=O)n2n1 [Fragment Z111634612]	-0.4 °C	-0.4 °C	63.45	61.58				
CS(=O)(=O)Cc1nc2ccccc2[nH]1 [Fragment Z126932614]	-0.1 °C	-0.2 °C	65.26	80.74				
CC(NS(C)(=O)=O)c1ccccc1Cl (stereo not drawn) [Fragment Z133729708]	-0.8 °C	-0.7 °C	60.52	74.68				
CNC(=O)c1ccc(S(N)(=O)=O)cc1 [Fragment Z165170770]	-0.4 °C	0 °C	49.37	49.74				
NC(=O)N1CCN(C(=O)c2ccco2)CC1 [Fragment Z198194396]	-0.2 °C	-0.2 °C	38.54	34.19				
CC(NC(=O)C1CC1)c1cccnc1 (stereo not drawn) [Fragment Z220996120]	-0.1 °C	0 °C	171.5	149.8				
Nc1ccc(S(=O)(=O)Nc2ccccn2)cc1 [Fragment Z271004858]	-0.1 °C	-0.1 °C	106.3	79.01				
Cc1cc(N2CCNCC2)nc(C)n1 [Fragment Z274575916]	0 °C	0.2 °C	164.1	76.44				
O=C(NC1CC1)c1cnn2cccnc12 [Fragment Z285642082]					-0.3 °C	-0.2 °C	44.74	43.71
NC(=S)Nc1ccccc1OC(F)(F)F [Fragment Z291279160]					-0.4 °C	-0.2 °C	37.66	45.42
Cc1nccn1Cc1cccc(C#N)c1 [Fragment Z319545618]					-0.3 °C	0 °C	30.53	11.39
CC(C)N(C)c1ncnc2c1cnn2C [Fragment Z328695024]	-0.6 °C	-0.6 °C	47.77	48.11				
CN(CC(=O)N1CCCCC1)S(C)(=O)=O [Fragment Z363071686]					-0.1 °C	-0.2 °C	39.85	20.46
OCc1cn(-c2ccc(Cl)cc2)nn1 [Fragment Z1374778753]							169.5	114.8
